Drawing on patent US9708316B2 (BRISTOL-MYERS SQUIBB COMPANY, priority 2014, dated 2017), this text covers IC50 for 29 compounds.

Where only a bound is given, the exact number is not on record here.

The target of experiment [1] is T1, HIS-TGFβR1 T204D (Homo sapiens, UniProt P36897, T204D).
T1 sequence (P36897 34-503 T204D): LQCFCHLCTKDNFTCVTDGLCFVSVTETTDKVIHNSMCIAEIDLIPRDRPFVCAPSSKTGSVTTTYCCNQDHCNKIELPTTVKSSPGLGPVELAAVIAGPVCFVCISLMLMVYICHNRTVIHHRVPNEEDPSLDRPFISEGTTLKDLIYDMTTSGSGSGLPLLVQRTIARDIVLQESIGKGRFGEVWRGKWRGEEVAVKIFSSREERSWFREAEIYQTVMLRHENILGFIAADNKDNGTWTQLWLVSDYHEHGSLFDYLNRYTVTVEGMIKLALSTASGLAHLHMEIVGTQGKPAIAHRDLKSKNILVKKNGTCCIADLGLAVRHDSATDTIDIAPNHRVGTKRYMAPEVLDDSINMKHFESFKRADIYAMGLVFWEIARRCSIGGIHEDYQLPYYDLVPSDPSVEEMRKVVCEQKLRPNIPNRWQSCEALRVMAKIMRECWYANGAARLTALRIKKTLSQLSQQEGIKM
Description: HTRF probe-displacement assay, HIS-TGFβR1 T204D. The experiment is classed as binding. To be noted: read-out: TGFβR1 (μM) IC50. On the technique in general: Time-resolved FRET reads energy transfer from a long-lived donor to a nearby acceptor.

Experiment [2] addresses HIS-TGFβR2 WT (Homo sapiens, UniProt P37173). Put plainly: HTRF probe-displacement assay, HIS-TGFβR2 WT. Type of experiment: binding.

Sequence of HIS-TGFβR2 WT (P37173 23-567): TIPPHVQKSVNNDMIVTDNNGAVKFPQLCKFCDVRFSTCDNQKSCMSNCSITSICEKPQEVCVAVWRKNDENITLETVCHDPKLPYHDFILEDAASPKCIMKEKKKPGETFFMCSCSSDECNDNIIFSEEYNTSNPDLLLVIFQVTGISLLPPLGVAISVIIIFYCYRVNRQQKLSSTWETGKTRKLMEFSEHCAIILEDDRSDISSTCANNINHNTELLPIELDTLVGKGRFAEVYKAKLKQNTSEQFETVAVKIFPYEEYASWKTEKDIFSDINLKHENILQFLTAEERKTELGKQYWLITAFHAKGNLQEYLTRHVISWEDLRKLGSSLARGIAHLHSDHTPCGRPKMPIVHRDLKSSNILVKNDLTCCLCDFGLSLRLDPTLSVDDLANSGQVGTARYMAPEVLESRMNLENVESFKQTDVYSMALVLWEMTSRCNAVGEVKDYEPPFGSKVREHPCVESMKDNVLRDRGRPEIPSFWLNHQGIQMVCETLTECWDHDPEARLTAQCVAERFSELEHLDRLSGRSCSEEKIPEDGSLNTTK

In the case of `CC(=O)Nc1cc(-c2[nH]c3c(CF)ccnc3c2-c2cccc(C(F)F)n2)ccn1` [Example 150, N-(4-{3-[6-(Difluoromethyl)pyridin-2-yl]-7-(fluoromethyl)-1H-pyrrolo[3,2-b]pyridin-2-yl}-pyridin-2-yl)acetamide], the figures for the IC50 in experiment [1] and in experiment [2] were 0.001 µM and 6.08 µM, respectively.
On the same counts, the results for `CC(=O)Nc1cc(-c2[nH]c3cccnc3c2-c2ccc(C#N)s2)ccn1` [Example 188, N-(4-(3-(5-Cyanothiophen-2-yl)-1H-pyrrolo[3,2-b]pyridin-2-yl)pyridin-2-yl)acetamide] are 0.0104 µM and 0.24 µM.
Turning to `CC(=O)Nc1cc(-c2[nH]c3cc(F)cnc3c2-c2nc(C)cs2)ccn1` [Example 225, N-(4-(6-Fluoro-3-(4-methylthiazol-2-yl)-1H-pyrrolo[3,2-b]pyridin-2-yl)pyridin-2-yl)acetamide], the IC50 in experiment [1] was 0.0007 µM; in experiment [2] it was 0.057 µM.
Taken in the same sequence, the figures for `[2H]C([2H])([2H])Oc1ccc(-c2c(-c3ccnc(NC(C)=O)c3)[nH]c3cc(Cl)cnc23)nc1` [Example 105, N-(4-(6-Chloro-3-(5-(methoxy-d3)pyridin-2-yl)-1H-pyrrolo[3,2-b]pyridin-2-yl)pyridin-2-yl)acetamide] were 0.005 µM and more than 15 µM.
As to `COc1ccc(-c2c(-c3ccnc(NC(C)=O)c3)n(C)c3cccnc23)cn1` [Example 54, N-{4-[3-(6-Methoxypyridin-3-yl)-1-methyl-1H-pyrrolo[3,2-b]pyridin-2-yl]pyridin-2-yl}acetamide], the IC50 in experiment [1] is 0.021 µM; in experiment [2] it was 3.61 µM.
On the same counts, the results for `COc1cnc2c(-c3nc(C(F)(F)F)cs3)c(-c3ccnc(NC(C)=O)c3)[nH]c2c1` [Example 229, N-(4-(6-Methoxy-3-(4-(trifluoromethyl)thiazol-2-yl)-1H-pyrrolo[3,2-b]pyridin-2-yl)pyridin-2-yl)acetamide] are 0.0014 µM and 10.9 µM.
For the compound `CC(=O)Nc1cc(-c2[nH]c3cccnc3c2-c2nccs2)ccn1` [Example 205, N-(4-(3-(Thiazol-2-yl)-1H-pyrrolo[3,2-b]pyridin-2-yl)pyridin-2-yl)acetamide], the IC50 stood at 0.0029 µM in experiment [1] and 0.147 µM in experiment [2].
On the same counts, the results for `CC(=O)Nc1cc(-c2[nH]c3c(C(C)O)ccnc3c2-c2ccc(F)nc2)ccn1` (stereo not shown) [Example 261, N-(4-(3-(6-Fluoropyridin-3-yl)-7-(1-hydroxyethyl)-1H-pyrrolo[3,2-b]pyridin-2-yl)pyridin-2-yl)acetamide] are 0.005 µM and 0.011 µM.
On the same counts, the results for `CC(=O)Nc1cc(-c2[nH]c3c(C(C)O)ccnc3c2-c2cccc(Cl)n2)ccn1` (stereo not shown) [Example 263, N-(4-(3-(6-Chloropyridin-2-yl)-7-(1-hydroxyethyl)-1H-pyrrolo[3,2-b]pyridin-2-yl)pyridin-2-yl)acetamide] are 0.001 µM and 0.279 µM.
On the same counts, the results for `CC(=O)Nc1cc(-c2[nH]c3cccnc3c2-c2nccc(C)n2)ccn1` [Example 195, N-(4-(3-(4-Methylpyrimidin-2-yl)-1H-pyrrolo[3,2-b]pyridin-2-yl)pyridin-2-yl)acetamide] are 0.0048 µM and more than 15 µM.
As for `COc1ccc(-c2c(-c3ccnc(NC(C)=O)c3)[nH]c3cc(CN)cnc23)cn1` [Example 79, N-(4-(6-(Aminomethyl)-3-(6-methoxypyridin-3-yl)-1H-pyrrolo[3,2-b]pyridin-2-yl)pyridin-2-yl)acetamide], the half-inhibitory concentration (IC50) was determined as 0.007 µM in experiment [1] and 0.16 µM in experiment [2].
On the same counts, the results for `CC(=O)Nc1cc(-c2[nH]c3cccnc3c2-c2cnc(F)c(C)c2)ccn1` [Example 11, N-{4-[3-(6-Fluoro-5-methylpyridin-3-yl)-1H-pyrrolo[3,2-b]pyridin-2-yl]pyridin-2-yl}acetamide] are 0.027 µM and 0.009 µM.
Taken in the same sequence, the figures for `CC(=O)Nc1cc(-c2[nH]c3cc(Cl)cnc3c2-c2nc(C)cs2)ccn1` [Example 176, N-(4-(6-Chloro-3-(4-methylthiazol-2-yl)-1H-pyrrolo[3,2-b]pyridin-2-yl)pyridin-2-yl)acetamide] were 0.0005 µM and 0.037 µM.
On the same counts, the results for `COc1ccnc(-c2c(-c3ccnc(NC(C)=O)c3)[nH]c3cccnc23)c1` [Example 28, N-{4-[3-(4-Methoxypyridin-2-yl)-1H-pyrrolo[3,2-b]pyridin-2-yl]pyridin-2-yl}acetamide] are 0.2 µM and 6.05 µM.
For the compound `COc1ccc(-c2c(-c3ccnc(NC(C)=O)c3)[nH]c3cc(C)cnc23)cn1` [Example 173, N-(4-(3-(6-Methoxypyridin-3-yl)-6-methyl-1H-pyrrolo[3,2-b]pyridin-2-yl)pyridin-2-yl)acetamide], the IC50 in experiment [1] worked out at 0.15 µM; in experiment [2], 1.35 µM.
Taken in the same sequence, the figures for `CC(=O)Nc1cc(-c2[nH]c3c(C)ccnc3c2-c2csc(C)n2)ccn1` [Example 221, N-(4-(7-Methyl-3-(2-methylthiazol-4-yl)-1H-pyrrolo[3,2-b]pyridin-2-yl)pyridin-2-yl)acetamide] were 0.0037 µM and 1.36 µM.
With `COc1ccc(-c2c(-c3ccnc(NC(C)=O)c3)[nH]c3cc(N4CCC[C@H]4CO)cnc23)nc1` [Example 162, (S)-N-(4-(6-(2-(Hydroxymethyl)pyrrolidin-1-yl)-3-(5-methoxypyridin-2-yl)-1H-pyrrolo[3,2-b]pyridin-2-yl)pyridin-2-yl)acetamide], the IC50 in experiment [1] is 0.0279 µM; in experiment [2], more than 15 µM.
Taken in the same sequence, the figures for `COc1ccc(-c2c(-c3ccnc(N)c3)[nH]c3cccnc23)cn1` [Example 52, 4-[3-(6-Methoxypyridin-3-yl)-1H-pyrrolo[3,2-b]pyridin-2-yl]pyridin-2-amine] were 0.041 µM and 0.45 µM.
On the same counts, the results for `CC(=O)Nc1cc(-c2[nH]c3cc(F)cnc3c2-c2cccc(Cl)n2)ccn1` [Example 38, N-{4-[3-(6-Chloropyridin-2-yl)-6-fluoro-1H-pyrrolo[3,2-b]pyridin-2-yl]pyridin-2-yl}acetamide] are 0.002 µM and 0.11 µM.
In the case of `COc1ccc(-c2c(-c3ccnc(NC(C)=O)c3)[nH]c3cc(C(O)C(F)(F)C(N)=O)cnc23)nc1` (stereo not shown) [Example 295, 3-(2-(2-Acetamidopyridin-4-yl)-3-(5-methoxypyridin-2-yl)-1H-pyrrolo[3,2-b]pyridin-6-yl)-2,2-difluoro-3-hydroxypropanamide], the IC50 is 0.001 µM in experiment [1] and more than 15 µM in experiment [2].
On the same counts, the results for `CC(=O)Nc1cc(-c2[nH]c3cccnc3c2-c2ccnc(C#N)c2)ccn1` [Example 190, N-(4-(3-(2-Cyanopyridin-4-yl)-1H-pyrrolo[3,2-b]pyridin-2-yl)pyridin-2-yl)acetamide] are 0.0443 µM and 7.56 µM.
Taken in the same sequence, the figures for `CC(=O)Nc1cc(-c2[nH]c3c(-c4c(C)noc4C)ccnc3c2-c2cccc(C(F)F)n2)ccn1` [Example 130, N-(4-{3-[6-(Difluoromethyl)pyridin-2-yl]-7-(dimethyl-1,2-oxazol-4-yl)-1H-pyrrolo[3,2-b]pyridin-2-yl}pyridin-2-yl)acetamide] were 0.004 µM and more than 15 µM.
Taken in the same sequence, the figures for `COc1ccc(-c2c(-c3ccnc(NC(=O)CN4CCOCC4)c3)[nH]c3cccnc23)cn1` [Example 286, N-(4-(3-(6-Methoxypyridin-3-yl)-1H-pyrrolo[3,2-b]pyridin-2-yl)pyridin-2-yl)-2-morpholinoacetamide] were 0.001 µM and 0.253 µM.
`CC(=O)Nc1cc(-c2[nH]c3cc(C)cnc3c2-c2csc(C)n2)ccn1` [Example 186, N-(4-(6-Methyl-3-(2-methylthiazol-4-yl)-1H-pyrrolo[3,2-b]pyridin-2-yl)pyridin-2-yl)acetamide]: the IC50 in experiment [1] was 0.0029 µM; in experiment [2], 0.821 µM.
With `CC(=O)Nc1cc(-c2[nH]c3c(OCCN4CCCC4)ccnc3c2-c2cccc(C(F)F)n2)ccn1` [Example 126, N-(4-{3-[6-(Difluoromethyl)pyridin-2-yl]-7-[2-(pyrrolidin-1-yl)ethoxy]-1H-pyrrolo[3,2-b]pyridin-2-yl}pyridin-2-yl)acetamide], the results for the IC50 in experiment [1] and in experiment [2] were 0.009 µM and more than 15 µM, respectively.
On the same counts, the results for `COc1ccnc2c(-c3cccc(C(F)F)n3)c(-c3ccnc(NC(C)=O)c3)[nH]c12` [Example 267, N-(4-(3-(6-(Difluoromethyl)pyridin-2-yl)-7-methoxy-1H-pyrrolo[3,2-b]pyridin-2-yl)pyridin-2-yl)acetamide] are 0.002 µM and more than 15 µM.
Taken in the same sequence, the figures for `COc1cc(-c2c(-c3ccnc(NC(C)=O)c3)[nH]c3cccnc23)ccn1` [Example 196, N-(4-(3-(2-Methoxypyridin-4-yl)-1H-pyrrolo[3,2-b]pyridin-2-yl)pyridin-2-yl)acetamide] were 0.0951 µM and 1.21 µM.
On the same counts, the results for `COC(=O)c1ccnc2c(-c3ccc(F)cn3)c(-c3ccnc(NC(C)=O)c3)[nH]c12` [Example 71, Methyl 2-(2-acetamidopyridin-4-yl)-3-(5-fluoropyridin-2-yl)-1H-pyrrolo[3,2-b]pyridine-7-carboxylate] are 0.27 µM and 4.38 µM.
With `COc1ccc(-c2c(-c3ccnc(NC(C)=O)c3)[nH]c3cc(Cl)cnc23)nc1` [Example 47, N-{4-[6-Chloro-3-(5-methoxypyridin-2-yl)-1H-pyrrolo[3,2-b]pyridin-2-yl]pyridin-2-yl}acetamide], the IC50 in experiment [1] was 0.004 µM; in experiment [2], more than 15 µM.

The term IC50 denotes the concentration at which inhibition is half-maximal.
